Experimental data reported in PubChem BioAssay AID1963830 (Molecular Pharmacology Branch, DTP, NCI, 2024).

Test system: 922993-354-T-J3-PDC complex spheroid viability
Test: Anticancer human tumor 922993-354-T-J3-PDC patient-derived endometrial carcinoma cell line growth inhibition [POLQ]
Settings: for IC50: curve of first compound; for viability, T/C: stronger effect = lower value
Procedure, shortened: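 PDC + HUVEC + MSC complex spheroids; POLQ inhibitors ± partner drugs; top conc. at/near clinical Cmax, else 10 microM (SN-38 1 microM), half-log dilutions; 37 degrees C, 5% CO2.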

[1] = second compound 0.0316 µM, first compound 0.00316 µM
[2] = second compound 0.0316 µM, first compound 0.01 µM
[3] = second compound 0.0316 µM, first compound 0.0316 µM
[4] = second compound 0.0316 µM, first compound 0.1 µM
[5] = second compound 0.0316 µM, first compound 0.316 µM
[6] = second compound 0.0316 µM, first compound 1 µM
[7] = second compound 0.1 µM, first compound 0.00316 µM
[8] = second compound 0.1 µM, first compound 0.01 µM
[9] = second compound 0.1 µM, first compound 0.0316 µM
[10] = second compound 0.1 µM, first compound 0.1 µM
[11] = second compound 0.1 µM, first compound 0.316 µM
[12] = second compound 0.1 µM, first compound 1 µM
[13] = second compound 0.316 µM, first compound 0.00316 µM
[14] = second compound 0.316 µM, first compound 0.01 µM
[15] = second compound 0.316 µM, first compound 0.0316 µM
[16] = second compound 0.316 µM, first compound 0.1 µM
[17] = second compound 0.316 µM, first compound 0.316 µM
[18] = second compound 0.316 µM, first compound 1 µM
[19] = second compound 1 µM, first compound 0.00316 µM
[20] = second compound 1 µM, first compound 0.01 µM
[21] = second compound 1 µM, first compound 0.0316 µM
[22] = second compound 1 µM, first compound 0.1 µM
[23] = second compound 1 µM, first compound 0.316 µM
[24] = second compound 1 µM, first compound 1 µM
[25] = second compound 3.16 µM, first compound 0.00316 µM
[26] = second compound 3.16 µM, first compound 0.01 µM
[27] = second compound 3.16 µM, first compound 0.0316 µM
[28] = second compound 3.16 µM, first compound 0.1 µM
[29] = second compound 3.16 µM, first compound 0.316 µM
[30] = second compound 3.16 µM, first compound 1 µM
[31] = second compound 10 µM, first compound 0.00316 µM
[32] = second compound 10 µM, first compound 0.01 µM
[33] = second compound 10 µM, first compound 0.0316 µM
[34] = second compound 10 µM, first compound 0.1 µM
[35] = second compound 10 µM, first compound 0.316 µM
[36] = second compound 10 µM, first compound 1 µM
[37] = second compound 0.0316 µM, first compound 3.16 µM
[38] = second compound 0.0316 µM, first compound 10 µM
[39] = second compound 0.1 µM, first compound 3.16 µM
[40] = second compound 0.1 µM, first compound 10 µM
[41] = second compound 0.316 µM, first compound 3.16 µM
[42] = second compound 0.316 µM, first compound 10 µM
[43] = second compound 1 µM, first compound 3.16 µM
[44] = second compound 1 µM, first compound 10 µM
[45] = second compound 3.16 µM, first compound 3.16 µM
[46] = second compound 3.16 µM, first compound 10 µM
[47] = second compound 10 µM, first compound 3.16 µM
[48] = second compound 10 µM, first compound 10 µM
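Further: spheroids exposed to the agents for one week.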
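Wherever viability, T/C is given: 100% = DMSO vehicle control wells.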

CCc1c2c(nc3ccc(O)cc13)-c1cc3c(c(=O)n1C2)COC(=O)[C@]3(O)CC + Nc1ccc(C#CCN(C(=O)Cc2ncc(C(F)(F)F)cc2C(F)(F)F)c2ccc(F)cc2)nn1
IC50 (second compound 0.0316 µM): 27.9 nM | IC50 (second compound 0.1 µM): 26.2 nM | IC50 (second compound 0.316 µM): 31 nM | IC50 (second compound 1 µM): 32.2 nM | IC50 (second compound 3.16 µM): 22.1 nM | IC50 (second compound 10 µM): 14.4 nM | viability, T/C [1]: 99% | viability, T/C [2]: 91.1% | viability, T/C [3]: 45.5% | viability, T/C [4]: 20.1% | viability, T/C [5]: 18.8% | viability, T/C [6]: 26.7% | viability, T/C [7]: 100% | viability, T/C [8]: 88.8% | viability, T/C [9]: 43.3% | viability, T/C [10]: 17.9% | viability, T/C [11]: 19.8% | viability, T/C [12]: 24.8% | viability, T/C [13]: 104% | viability, T/C [14]: 92.2% | viability, T/C [15]: 50.3% | viability, T/C [16]: 20.3% | viability, T/C [17]: 16.8% | viability, T/C [18]: 26.6% | viability, T/C [19]: 102% | viability, T/C [20]: 88.9% | viability, T/C [21]: 52.4% | viability, T/C [22]: 18.4% | viability, T/C [23]: 17.7% | viability, T/C [24]: 25.9% | viability, T/C [25]: 95.6% | viability, T/C [26]: 76.3% | viability, T/C [27]: 39.7% | viability, T/C [28]: 17.4% | viability, T/C [29]: 18.2% | viability, T/C [30]: 27.7% | viability, T/C [31]: 87% | viability, T/C [32]: 63.9% | viability, T/C [33]: 16.1% | viability, T/C [34]: 16.3% | viability, T/C [35]: 20.1% | viability, T/C [36]: 29.6%

COc1ccc([C@@H](O)c2cc(-c3ncnc4cc(N5CCOCC5)ccc34)c(F)cc2Cl)nn1 + Nc1ccc(C#CCN(C(=O)Cc2ncc(C(F)(F)F)cc2C(F)(F)F)c2ccc(F)cc2)nn1
IC50 (second compound 0.0316 µM): > 10000 nM | IC50 (second compound 0.1 µM): > 10000 nM | IC50 (second compound 0.316 µM): > 10000 nM | IC50 (second compound 1 µM): > 10000 nM | IC50 (second compound 3.16 µM): > 10000 nM | IC50 (second compound 10 µM): > 10000 nM | viability, T/C [3]: 103% | viability, T/C [4]: 103% | viability, T/C [5]: 98% | viability, T/C [6]: 100% | viability, T/C [37]: 91.3% | viability, T/C [38]: 73.8% | viability, T/C [9]: 106% | viability, T/C [10]: 104% | viability, T/C [11]: 100% | viability, T/C [12]: 97.9% | viability, T/C [39]: 93.7% | viability, T/C [40]: 75.5% | viability, T/C [15]: 106% | viability, T/C [16]: 99.2% | viability, T/C [17]: 101% | viability, T/C [18]: 97.4% | viability, T/C [41]: 87.3% | viability, T/C [42]: 74.9% | viability, T/C [21]: 105% | viability, T/C [22]: 102% | viability, T/C [23]: 99.1% | viability, T/C [24]: 93.5% | viability, T/C [43]: 89.4% | viability, T/C [44]: 74.9% | viability, T/C [27]: 97.1% | viability, T/C [28]: 97% | viability, T/C [29]: 93.5% | viability, T/C [30]: 92.5% | viability, T/C [45]: 86.5% | viability, T/C [46]: 72% | viability, T/C [33]: 97.3% | viability, T/C [34]: 89% | viability, T/C [35]: 91.4% | viability, T/C [36]: 91.9% | viability, T/C [47]: 90.3% | viability, T/C [48]: 68.8%

COc1cccc(OCCCN)c1-c1cc(Nc2cnc(C#N)cn2)n[nH]1 + Nc1ccc(C#CCN(C(=O)Cc2ncc(C(F)(F)F)cc2C(F)(F)F)c2ccc(F)cc2)nn1
IC50 (second compound 0.0316 µM): 590 nM | IC50 (second compound 0.1 µM): 670 nM | IC50 (second compound 0.316 µM): 617 nM | IC50 (second compound 1 µM): 609 nM | IC50 (second compound 3.16 µM): 277 nM | IC50 (second compound 10 µM): 52.3 nM | viability, T/C [1]: 102% | viability, T/C [2]: 100% | viability, T/C [3]: 98.2% | viability, T/C [4]: 97.3% | viability, T/C [5]: 83.4% | viability, T/C [6]: 22.1% | viability, T/C [7]: 104% | viability, T/C [8]: 99% | viability, T/C [9]: 95.9% | viability, T/C [10]: 98.5% | viability, T/C [11]: 99.1% | viability, T/C [12]: 23.8% | viability, T/C [13]: 102% | viability, T/C [14]: 98.2% | viability, T/C [15]: 94.7% | viability, T/C [16]: 99.7% | viability, T/C [17]: 92.3% | viability, T/C [18]: 19.4% | viability, T/C [19]: 102% | viability, T/C [20]: 105% | viability, T/C [21]: 101% | viability, T/C [22]: 96.3% | viability, T/C [23]: 94% | viability, T/C [24]: 16.9% | viability, T/C [25]: 96.1% | viability, T/C [26]: 98.1% | viability, T/C [27]: 99.2% | viability, T/C [28]: 94.2% | viability, T/C [29]: 44.3% | viability, T/C [30]: 14.8% | viability, T/C [31]: 95.9% | viability, T/C [32]: 92.8% | viability, T/C [33]: 74.7% | viability, T/C [34]: 18.3% | viability, T/C [35]: 10.5% | viability, T/C [36]: 10.6%

O=C(c1cc(Cc2n[nH]c(=O)c3ccccc23)ccc1F)N1CCN(C(=O)C2CC2)CC1 + Nc1ccc(C#CCN(C(=O)Cc2ncc(C(F)(F)F)cc2C(F)(F)F)c2ccc(F)cc2)nn1
IC50 (second compound 0.0316 µM): > 10000 nM | IC50 (second compound 0.1 µM): > 10000 nM | IC50 (second compound 0.316 µM): > 10000 nM | IC50 (second compound 1 µM): > 10000 nM | IC50 (second compound 3.16 µM): > 10000 nM | IC50 (second compound 10 µM): > 10000 nM | viability, T/C [3]: 107% | viability, T/C [4]: 97.6% | viability, T/C [5]: 99.4% | viability, T/C [6]: 101% | viability, T/C [37]: 102% | viability, T/C [38]: 96.7% | viability, T/C [9]: 104% | viability, T/C [10]: 103% | viability, T/C [11]: 100% | viability, T/C [12]: 98% | viability, T/C [39]: 101% | viability, T/C [40]: 95% | viability, T/C [15]: 104% | viability, T/C [16]: 99.5% | viability, T/C [17]: 101% | viability, T/C [18]: 101% | viability, T/C [41]: 102% | viability, T/C [42]: 97.1% | viability, T/C [21]: 99% | viability, T/C [22]: 105% | viability, T/C [23]: 101% | viability, T/C [24]: 96.2% | viability, T/C [43]: 100% | viability, T/C [44]: 100% | viability, T/C [27]: 101% | viability, T/C [28]: 100% | viability, T/C [29]: 99.2% | viability, T/C [30]: 98.6% | viability, T/C [45]: 97.5% | viability, T/C [46]: 101% | viability, T/C [33]: 95.6% | viability, T/C [34]: 96.9% | viability, T/C [35]: 88.8% | viability, T/C [36]: 91.9% | viability, T/C [47]: 94.2% | viability, T/C [48]: 90%
